Data: the supplement of paper PMC10883282
± gives the standard deviation of the averaged measurements.

Key:
Assay in all cases: relative viability vs DMSO control (72 h) (fraction); higher = more viable cells
HS729 = test system: HS729
Method in brief: (§1)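 Relative viability was measured with ATPLite and expressed as percent growth, averaged across up to triplicate wells. Sarcoma cell lines had been seeded in 384-well plates to reach 80–90% confluence, dosed after 24 h, and incubated 72 h at 37 °C, 5% CO2. All data were rescaled on a scale where 1 is full and 0 is none.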

SW684 = test system: SW684
Method in brief: as §1

SK-LMS-1 = test system: SK-LMS-1
Method in brief: as §1

A204 = test system: A204
Method in brief: as §1

SYO-1 = test system: SYO-1
Method in brief: as §1

KHOS-NP = test system: KHOS-NP
Method in brief: as §1

SW872 = test system: SW872
Method in brief: as §1

SK-ES-1 = test system: SK-ES-1
Method in brief: as §1

G401 = test system: G401
Method in brief: as §1

VA-ES-BJ = test system: VA-ES-BJ
Method in brief: as §1

RD = test system: RD
Method in brief: as §1

MES-SA = test system: MES-SA
Method in brief: as §1

## C[C@@H]1CN(C(=O)c2ccc(NC(=O)c3cc(O[C@H](C)c4c(Cl)ccc(F)c4Cl)c(N)nn3)cc2)C[C@H](C)N1 [Ensartinib]
HS729; 0.00017 µM
  relative viability: 0.96 ± 0.073
HS729; 0.00051 µM
  relative viability: 1.02 ± 0.058
HS729; 0.00152 µM
  relative viability: 1.03 ± 0.084
HS729; 0.00457 µM
  relative viability: 1.01 ± 0.098
HS729; 0.01372 µM
  relative viability: 0.998 ± 0.096
HS729; 0.04115 µM
  relative viability: 0.986 ± 0.051
HS729; 0.1235 µM
  relative viability: 0.955 ± 0.028
HS729; 0.3704 µM
  relative viability: 0.888 ± 0.035
HS729; 1.111 µM
  relative viability: 0.764 ± 0.059
HS729; 3.333 µM
  relative viability: 0.594 ± 0.023
HS729; 10 µM
  relative viability: 0.207 ± 0.025
SW684; 0.00017 µM
  relative viability: 1.05 ± 0.025
SW684; 0.00051 µM
  relative viability: 1.02 ± 0.013
SW684; 0.00152 µM
  relative viability: 1.08 ± 0.042
SW684; 0.00457 µM
  relative viability: 1.06 ± 0.035
SW684; 0.01372 µM
  relative viability: 1.06 ± 0.017
SW684; 0.04115 µM
  relative viability: 1.07 ± 0.052
SW684; 0.1235 µM
  relative viability: 1.06 ± 0.034
SW684; 0.3704 µM
  relative viability: 1.05 ± 0.023
SW684; 1.111 µM
  relative viability: 0.971 ± 0.044
SW684; 3.333 µM
  relative viability: 0.829 ± 0.018
SW684; 10 µM
  relative viability: 0.113 ± 0.0034
SK-LMS-1; 0.00017 µM
  relative viability: 0.995 ± 0.018
SK-LMS-1; 0.00051 µM
  relative viability: 0.9982 ± 0.0072
SK-LMS-1; 0.00152 µM
  relative viability: 1.01 ± 0.022
SK-LMS-1; 0.00457 µM
  relative viability: 1.04 ± 0.039
SK-LMS-1; 0.01372 µM
  relative viability: 1.03 ± 0.0051
SK-LMS-1; 0.04115 µM
  relative viability: 1.02 ± 0.017
SK-LMS-1; 0.1235 µM
  relative viability: 1.01 ± 0.061
SK-LMS-1; 0.3704 µM
  relative viability: 0.83 ± 0.024
SK-LMS-1; 1.111 µM
  relative viability: 0.656 ± 0.031
SK-LMS-1; 3.333 µM
  relative viability: 0.53 ± 0.0076
SK-LMS-1; 10 µM
  relative viability: 0.0598 ± 0.0024
A204; 0.00017 µM
  relative viability: 1.069 ± 0.008
A204; 0.00051 µM
  relative viability: 1.07 ± 0.011
A204; 0.00152 µM
  relative viability: 1.06 ± 0.036
A204; 0.00457 µM
  relative viability: 1.05 ± 0.0042
A204; 0.01372 µM
  relative viability: 1.05 ± 0.029
A204; 0.04115 µM
  relative viability: 1.05 ± 0.055
A204; 0.1235 µM
  relative viability: 1.04 ± 0.053
A204; 0.3704 µM
  relative viability: 1.06 ± 0.056
A204; 1.111 µM
  relative viability: 0.98 ± 0.029
A204; 3.333 µM
  relative viability: 0.806 ± 0.053
A204; 10 µM
  relative viability: 0.326 ± 0.053
SYO-1; 0.00017 µM
  relative viability: 1.02 ± 0.024
SYO-1; 0.00051 µM
  relative viability: 1.01 ± 0.036
SYO-1; 0.00152 µM
  relative viability: 1 ± 0.02
SYO-1; 0.00457 µM
  relative viability: 0.997 ± 0.015
SYO-1; 0.01372 µM
  relative viability: 1.02 ± 0.011
SYO-1; 0.04115 µM
  relative viability: 0.981 ± 0.013
SYO-1; 0.1235 µM
  relative viability: 0.927 ± 0.052
SYO-1; 0.3704 µM
  relative viability: 0.91 ± 0.025
SYO-1; 1.111 µM
  relative viability: 0.6316 ± 0.0033
SYO-1; 3.333 µM
  relative viability: 0.175 ± 0.011
SYO-1; 10 µM
  relative viability: -0.0432 ± 0.0066
KHOS-NP; 0.00017 µM
  relative viability: 1.02 ± 0.018
KHOS-NP; 0.00051 µM
  relative viability: 1.04 ± 0.05
KHOS-NP; 0.00152 µM
  relative viability: 1.03 ± 0.021
KHOS-NP; 0.00457 µM
  relative viability: 1.03 ± 0.029
KHOS-NP; 0.01372 µM
  relative viability: 1.04 ± 0.014
KHOS-NP; 0.04115 µM
  relative viability: 1.03 ± 0.017
KHOS-NP; 0.1235 µM
  relative viability: 1.03 ± 0.04
KHOS-NP; 0.3704 µM
  relative viability: 1.03 ± 0.03
KHOS-NP; 1.111 µM
  relative viability: 1.02 ± 0.013
KHOS-NP; 3.333 µM
  relative viability: 0.987 ± 0.025
KHOS-NP; 10 µM
  relative viability: 0.422 ± 0.069
SW872; 0.00017 µM
  relative viability: 1.02 ± 0.028
SW872; 0.00051 µM
  relative viability: 1.03 ± 0.026
SW872; 0.00152 µM
  relative viability: 1.04 ± 0.033
SW872; 0.00457 µM
  relative viability: 1.05 ± 0.02
SW872; 0.01372 µM
  relative viability: 1.06 ± 0.016
SW872; 0.04115 µM
  relative viability: 1.04 ± 0.028
SW872; 0.1235 µM
  relative viability: 1.03 ± 0.037
SW872; 0.3704 µM
  relative viability: 1.01 ± 0.037
SW872; 1.111 µM
  relative viability: 0.835 ± 0.0097
SW872; 3.333 µM
  relative viability: 0.583 ± 0.016
SW872; 10 µM
  relative viability: 0.188 ± 0.011
SK-ES-1; 0.00017 µM
  relative viability: 0.934 ± 0.081
SK-ES-1; 0.00051 µM
  relative viability: 0.966 ± 0.045
SK-ES-1; 0.00152 µM
  relative viability: 0.987 ± 0.027
SK-ES-1; 0.00457 µM
  relative viability: 1 ± 0.04
SK-ES-1; 0.01372 µM
  relative viability: 0.974 ± 0.012
SK-ES-1; 0.04115 µM
  relative viability: 0.972 ± 0.043
SK-ES-1; 0.1235 µM
  relative viability: 0.97 ± 0.068
SK-ES-1; 0.3704 µM
  relative viability: 0.857 ± 0.072
SK-ES-1; 1.111 µM
  relative viability: 0.457 ± 0.038
SK-ES-1; 3.333 µM
  relative viability: 0.0368 ± 0.0014
SK-ES-1; 10 µM
  relative viability: 0.00643 ± 0.0012
G401; 0.00017 µM
  relative viability: 0.954 ± 0.022
G401; 0.00051 µM
  relative viability: 0.983 ± 0.024
G401; 0.00152 µM
  relative viability: 0.98 ± 0.025
G401; 0.00457 µM
  relative viability: 0.9873 ± 0.0051
G401; 0.01372 µM
  relative viability: 1.01 ± 0.039
G401; 0.04115 µM
  relative viability: 1.019 ± 0.0048
G401; 0.1235 µM
  relative viability: 1.05 ± 0.055
G401; 0.3704 µM
  relative viability: 0.946 ± 0.018
G401; 1.111 µM
  relative viability: 0.771 ± 0.026
G401; 3.333 µM
  relative viability: 0.49 ± 0.018
G401; 10 µM
  relative viability: 0.0293 ± 0.0073
VA-ES-BJ; 0.00017 µM
  relative viability: 1.05 ± 0.033
VA-ES-BJ; 0.00051 µM
  relative viability: 1.02 ± 0.034
VA-ES-BJ; 0.00152 µM
  relative viability: 1.03 ± 0.042
VA-ES-BJ; 0.00457 µM
  relative viability: 1.03 ± 0.062
VA-ES-BJ; 0.01372 µM
  relative viability: 1.06 ± 0.061
VA-ES-BJ; 0.04115 µM
  relative viability: 1.05 ± 0.031
VA-ES-BJ; 0.1235 µM
  relative viability: 1.02 ± 0.054
VA-ES-BJ; 0.3704 µM
  relative viability: 0.855 ± 0.031
VA-ES-BJ; 1.111 µM
  relative viability: 0.662 ± 0.042
VA-ES-BJ; 3.333 µM
  relative viability: 0.489 ± 0.011
VA-ES-BJ; 10 µM
  relative viability: 0.362 ± 0.017
RD; 0.00017 µM
  relative viability: 1.01 ± 0.032
RD; 0.00051 µM
  relative viability: 1.02 ± 0.053
RD; 0.00152 µM
  relative viability: 1.06 ± 0.034
RD; 0.00457 µM
  relative viability: 1.06 ± 0.065
RD; 0.01372 µM
  relative viability: 1.028 ± 0.01
RD; 0.04115 µM
  relative viability: 1.028 ± 0.0074
RD; 0.1235 µM
  relative viability: 0.972 ± 0.033
RD; 0.3704 µM
  relative viability: 0.9011 ± 0.0084
RD; 1.111 µM
  relative viability: 0.683 ± 0.03
RD; 3.333 µM
  relative viability: 0.561 ± 0.011
RD; 10 µM
  relative viability: 0.0738 ± 0.0066
MES-SA; 0.00017 µM
  relative viability: 0.921 ± 0.064
MES-SA; 0.00051 µM
  relative viability: 0.896 ± 0.057
MES-SA; 0.00152 µM
  relative viability: 0.938 ± 0.029
MES-SA; 0.00457 µM
  relative viability: 0.929 ± 0.029
MES-SA; 0.01372 µM
  relative viability: 0.932 ± 0.025
MES-SA; 0.04115 µM
  relative viability: 0.926 ± 0.048
MES-SA; 0.1235 µM
  relative viability: 0.961 ± 0.034
MES-SA; 0.3704 µM
  relative viability: 0.933 ± 0.035
MES-SA; 1.111 µM
  relative viability: 0.498 ± 0.016
MES-SA; 3.333 µM
  relative viability: 0.296 ± 0.0074
MES-SA; 10 µM
  relative viability: 0.1 ± 0.0096
